Results on 3 molecules are retold here after US8772286B2, “MK2 inhibitors” (Merck Sharp & Dohme B.V., priority 2009, dated 2014).

A value given as a limit tells only on which side of the number the result lay.

Data set [1] addresses T1, MK2 enzyme (Homo sapiens, UniProt P49137).
T1 construct: MK2 enzyme (active enzyme (peptide 46-end (Millipore))); purchased Millipore
The experiment in a line: MK2 enzyme activity, IMAP fluorescence polarization assay. It is filed as biochemical. To be noted: MK2 IMAP assay, 1 μM ATP, 30 min pre-incubation, 2 h room temperature; read-out: pEC50 value (converted). The essentials: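 Enzyme kept in KR buffer (10 mM Tris-HCl, 10 mM MgCl2, 0.01% Tween-20, 2 mM DTT, pH 7.2) and acting on a fluorescein-labeled peptide substrate; final compound range 10 μM to 0.316 nM. After 60 min at room temperature, FP at 535 nm was read. Signal as percent of the with/without-ATP control difference, and EC50 by curve fit.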
(In general: In fluorescence polarisation assays a small probe gives low polarisation when free and higher when bound to something large.)

Data set [2] can be described thus: Solubility determination of MK2 inhibitors (kinetic aqueous solubility, UPLC). It is filed as physicochemical. The following applies: aqueous buffer (system solution from pION inc.), 22 °C, pH 7.4, aqueous buffer, kinetic from dmso stock, pH 7.4, room temperature, about 1% DMSO, 24 h shaking; read-out: solubility. The essentials: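 Kinetic shake-flask solubility (mg/L) at pH 7.4, room temperature (21-23° C.), 1% final DMSO from 10 mM DMSO stock, duplicates. Shaken 24 h, filtered (0.45 um), 1-propanol added to filtrate; dissolved compound quantified by UPLC-UV against external DMSO calibration line of the same compound.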

T1 sequence (P49137 46-400 limits assumed): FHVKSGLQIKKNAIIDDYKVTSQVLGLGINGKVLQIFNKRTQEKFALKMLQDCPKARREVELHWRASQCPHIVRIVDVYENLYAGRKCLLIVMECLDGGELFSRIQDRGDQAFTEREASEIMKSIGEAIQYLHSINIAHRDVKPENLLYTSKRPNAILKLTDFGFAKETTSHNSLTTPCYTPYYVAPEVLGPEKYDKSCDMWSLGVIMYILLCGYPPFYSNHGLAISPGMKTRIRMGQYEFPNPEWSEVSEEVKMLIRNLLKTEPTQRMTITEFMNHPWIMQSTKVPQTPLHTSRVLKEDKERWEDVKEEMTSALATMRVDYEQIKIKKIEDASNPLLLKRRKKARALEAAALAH

On to `O=C(NC1CCCCC1)c1ccc(-c2nccc(-c3cc4c([nH]3)C3(CCNCC3)CNC4=O)n2)cc1Cl` [1—31, 2-chloro-N-cyclohexyl-4-(4-(4′-oxo-1′,4′,5′,6′-tetrahydrospiro[piperidine-4,7′-pyrrolo[3,2-c]pyridine]-2′-yl)pyrimidin-2-yl)benzamide], for which the EC50 in data set [1] was 3.16 to 31.6 nM. The solubility at 24 h in data set [2] was at least 50 µg/mL.

`O=C1NCC2(CCNCC2)c2[nH]c(-c3ccnc(-c4cccc(OC(F)(F)F)c4)n3)cc21` [1—16, 2′-(2-(3-(trifluoromethoxy)phenyl)pyrimidin-4-yl)-5′,6′-dihydrospiro[piperidine-4,7′-pyrrolo[3,2-c]pyridin]-4′(1′H)-one]: the EC50 in data set [1] was 3.16 to 31.6 nM. Also, the solubility at 24 h in data set [2] was at least 50 µg/mL.

Take `O=C1NCC2(CCNCC2)c2[nH]c(-c3ccnc(-c4ccc5c(c4)OCCCO5)n3)cc21` [1—11, 2′-(2-(3,4-dihydro-2H-benzo[b][1,4]dioxepin-7-yl)pyrimidin-4-yl)-5′,6′-dihydrospiro[piperidine-4,7′-pyrrolo[3,2-c]pyridin]-4′(1′H)-one]: in data set [1], the EC50 is 3.16 to 31.6 nM. Also, the solubility at 24 h in data set [2] was at least 50 µg/mL.

What is called solubility is the dissolved amount per volume that the medium holds.
